Data set [1] relates to Human immunodeficiency virus 1. Nature of the data set: Antiviral activity against HIV-1 HE infected in wild type human CEM/0 cells assessed as inhibition of virus-induced giant cell formation incubated for 4 to 5 days by light microscopy. The note with it: Human immunodeficiency virus 1, HE, CCRF-CEM. The class given is functional, organism-based.
Data set [2] can be described thus: Lipophilicity of the compound assessed as retention time by RP-HPLC analysis. The data set is classed as physicochemical.
Data set [3] in a line: Selectivity index, ratio of CC50 for cytotoxicity against human CEM cells to EC50 for antiviral activity against HIV-2 ROD infected in thymidine kinase deficient human CEM cells. The data set is classed as toxicity, cell-based. The note with it: read-out: Ratio CC50/EC50.
In data set [4] the target is T1, DNA polymerase alpha catalytic subunit (Homo sapiens) (UniProt P09884).
T1 sequence (whole entry): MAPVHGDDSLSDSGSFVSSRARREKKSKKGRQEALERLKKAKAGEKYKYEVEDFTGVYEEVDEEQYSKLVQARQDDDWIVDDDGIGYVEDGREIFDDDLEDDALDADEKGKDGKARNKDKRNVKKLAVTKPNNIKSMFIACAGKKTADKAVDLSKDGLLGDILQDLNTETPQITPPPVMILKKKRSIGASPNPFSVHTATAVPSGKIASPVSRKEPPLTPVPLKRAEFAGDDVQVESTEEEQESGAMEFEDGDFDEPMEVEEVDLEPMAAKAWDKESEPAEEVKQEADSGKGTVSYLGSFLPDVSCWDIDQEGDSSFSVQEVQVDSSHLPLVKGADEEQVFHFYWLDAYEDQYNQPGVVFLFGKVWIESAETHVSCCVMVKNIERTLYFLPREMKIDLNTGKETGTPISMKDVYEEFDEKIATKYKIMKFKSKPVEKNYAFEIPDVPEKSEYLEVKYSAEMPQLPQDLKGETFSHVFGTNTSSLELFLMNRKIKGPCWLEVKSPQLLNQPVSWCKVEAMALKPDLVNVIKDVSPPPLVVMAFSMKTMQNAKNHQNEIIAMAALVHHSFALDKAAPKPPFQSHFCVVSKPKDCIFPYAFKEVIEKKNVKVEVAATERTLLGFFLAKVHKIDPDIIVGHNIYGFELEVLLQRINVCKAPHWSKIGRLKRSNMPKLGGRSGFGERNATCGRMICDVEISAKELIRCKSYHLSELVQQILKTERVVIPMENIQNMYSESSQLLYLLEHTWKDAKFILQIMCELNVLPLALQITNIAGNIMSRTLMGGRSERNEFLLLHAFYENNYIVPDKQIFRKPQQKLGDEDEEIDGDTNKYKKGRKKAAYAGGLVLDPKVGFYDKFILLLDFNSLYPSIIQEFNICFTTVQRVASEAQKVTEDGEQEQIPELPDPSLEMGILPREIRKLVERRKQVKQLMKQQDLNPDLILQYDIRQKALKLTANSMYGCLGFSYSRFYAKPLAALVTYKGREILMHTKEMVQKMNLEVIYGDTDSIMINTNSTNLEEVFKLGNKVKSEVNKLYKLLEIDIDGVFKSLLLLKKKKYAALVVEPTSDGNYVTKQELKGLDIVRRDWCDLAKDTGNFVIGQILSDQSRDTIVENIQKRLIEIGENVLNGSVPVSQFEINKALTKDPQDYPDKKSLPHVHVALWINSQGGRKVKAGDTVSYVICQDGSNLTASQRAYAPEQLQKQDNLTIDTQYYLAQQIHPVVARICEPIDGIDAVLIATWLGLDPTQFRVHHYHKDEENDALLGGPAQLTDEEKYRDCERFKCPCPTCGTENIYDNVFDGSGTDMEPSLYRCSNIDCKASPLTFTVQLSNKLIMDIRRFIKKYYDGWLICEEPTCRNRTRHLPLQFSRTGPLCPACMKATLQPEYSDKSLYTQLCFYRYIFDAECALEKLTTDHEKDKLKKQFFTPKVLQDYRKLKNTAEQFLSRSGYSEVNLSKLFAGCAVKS
Nature of the data set: Substrate activity at human DNA polymerase alpha assessed as n+1 band formation incubated for 60 mins in presence of primer/template mixture and dNTPs by primer extension assay based fluorescence analysis.

The nature of data set [5]: Half life of the compound in human CEM/0 cell extracts by RP18-HPLC analysis. The class given is ADME, CCRF-CEM.
In data set [6] the test system is Human immunodeficiency virus 2. Nature of the data set: Antiviral activity against HIV-2 ROD infected in thymidine kinase deficient human CEM cells assessed as inhibition of virus-induced giant cell formation incubated for 4 to 5 days by light microscopy. The class given is functional, organism-based. The note with it: Human immunodeficiency virus 2, ROD, CCRF-CEM.

The test system of data set [7] is Human immunodeficiency virus 2. Description: Antiviral activity against HIV-2 ROD infected in wild type human CEM/0 cells assessed as inhibition of virus-induced giant cell formation incubated for 4 to 5 days by light microscopy. The data set is classed as functional, organism-based. To be noted: Human immunodeficiency virus 2, ROD, CCRF-CEM.
Data set [8] in a line: Half life of the compound in heparin-stabilized human plasma by HPLC analysis. The class given is ADME, cell-free.
Data set [9] can be described thus: Cytotoxicity against human CEM cells assessed as inhibition of cell proliferation. The class given is toxicity, cell-based, CCRF-CEM.
In data set [10] the target is DNA polymerase beta (Homo sapiens) (UniProt P06746). Description: Substrate activity at human DNA polymerase beta assessed as n+1 band formation incubated for 120 mins in presence of primer/template mixture and dNTPs by primer extension assay based fluorescence analysis.
Data set [11] is described as follows: Half life of the compound in phosphate buffer saline at pH 7.3 by RP18-HPLC analysis. The data set is classed as ADME.

The structures appear in SMILES notation. pEC50: −log10 of the molar value. Active and inactive are the calls of the source. No cut-off for these calls is given here.

Consider `CCCCCCCCCCCCCCCCCCOP(=O)(OCCCC)OP(=O)(O)OP(=O)(O)CO[C@H](C)Cn1cnc2c(N)ncnc21` (stereo partly drawn), for which the pEC50 in data set [1] was 7.33; in [6], 7.92; in data set [7], 7.72. In addition, the Retention_time in [2] is 15.5 min. For the same compound, the selectivity ratio in data set [3] was found to be 3690. Moreover, the outcome in [4] and in data set [10] was inactive. Further, the figures for the half-life in data set [5], in data set [8] and in data set [11] were greater than 20 h, greater than 8 h and 257 h, respectively. For the same compound, the half-maximal cytotoxic concentration (CC50) in [9] was 44300 nM.

With `CCCCCCCCCCCCCCCCCCP(=O)(OCCCC)OP(=O)(O)CO[C@H](C)Cn1cnc2c(N)ncnc21` (stereo partly drawn), the pEC50 in data set [1] was 7.46; in data set [6], 8.70; in [7], 8.52. Besides, the Retention_time in data set [2] was 18.1 min. Moreover, the selectivity ratio in [3] is 14000. In addition, the outcome in data set [4] and in [10] was inactive. In addition, the half-life in [5] was 5.1 h; in data set [8], greater than 5 h; in [11] it was 27 h. Also, the CC50 in data set [9] was determined as 37800 nM.

Take `CCCCCCCCCCCCCCCCCCP(=O)(OCCCC)OP(=O)(O)OP(=O)(O)CO[C@H](C)Cn1cnc2c(N)ncnc21` (stereo partly drawn): the pEC50 was 7.11 in data set [1], 7.48 in data set [6] and 7.21 in data set [7]. For the same compound, the Retention_time in [2] turned out to be 15.2 min. Further, the selectivity ratio in [3] was 1350. Moreover, the outcome in [4] and in data set [10] was inactive. Further, the half-life in data set [5] was greater than 8 h; in [8], greater than 8 h; in [11], greater than 500 h. In addition, the CC50 in data set [9] was 44600 nM.

Usually pEC50 stands for −log10 of the EC50, conventionally taken in molar units. The half-life is how long it takes for the measured level to halve. By CC50 is commonly meant the concentration at which the toxic effect on the cells reaches its halfway point.

The values above are taken from ChEMBL document CHEMBL5518164, “Membrane-permeable tenofovir-di- and monophosphate analogues” (Eur J Med Chem, 2024).
